{"source": "patent US20260024640A1", "about": "“SYSTEM AND METHOD I[…] COMPUTER FOR THE CONTROL OF […] THROUGH FUZZY CONTROL” (SmartTIVA Inc, priority 2022, published 2026)", "origin": "cited, not measured here", "key": {"[1]": {"settings": "Schnider"}, "[2]": {"settings": "Marsh"}, "[3]": {"settings": "General Model (LBM calculated by weight, age, gender)"}}, "note": "Where two headings read alike, the source gives them in different places."}
{"smiles": "CC(C)c1cccc(C(C)C)c1O", "note": "[Propofol]", "values": [{"measurement": "V1", "setting": "[1]; 70 kg, male, height: 170 cm", "value": 4.27, "unit": "L"}, {"measurement": "k13", "setting": "[1]; 70 kg, male, height: 170 cm", "value": 0.196, "unit": "min⁻¹"}, {"measurement": "k21", "setting": "[1]; 70 kg, male, height: 170 cm", "value": 0.067, "unit": "min⁻¹"}, {"measurement": "keo", "setting": "[1]; 70 kg, male, height: 170 cm", "value": 0.456, "unit": "min⁻¹"}, {"measurement": "V1", "setting": "[1]; [3]", "value": 4.27, "unit": "L"}, {"measurement": "k13", "setting": "[1]; [3]", "value": 0.196, "unit": "min⁻¹"}, {"measurement": "keo", "setting": "[1]; [3]", "value": 0.456, "unit": "min⁻¹"}, {"measurement": "V1", "setting": "[2]; 70 kg", "value": 15.9, "unit": "L"}, {"measurement": "k21", "setting": "[2]; 70 kg", "value": 0.055, "unit": "min⁻¹"}, {"measurement": "k31", "setting": "[2]; 70 kg", "value": 0.0033, "unit": "min⁻¹"}, {"measurement": "keo", "setting": "[2]; 70 kg", "value": 0.26, "unit": "min⁻¹"}, {"measurement": "V1", "setting": "[2]; General Model", "value": 0.228, "unit": "L/kg"}, {"measurement": "k21", "setting": "[2]; General Model", "value": 0.055, "unit": "min⁻¹"}, {"measurement": "k31", "setting": "[2]; General Model", "value": 0.0033, "unit": "min⁻¹"}, {"measurement": "keo", "setting": "[2]; General Model", "value": 0.26, "unit": "min⁻¹"}]}
